{
  "source": "patent US20160038532A1",
  "about": "“Treatment of Multiple Sclerosis With Combination of Laquinimod and Glatiramer Acetate” (TEVA PHARMACEUTICAL INDUSTRIES, LTD., priority 2011, published 2016)",
  "key": {"MOG-induced EAE [1]": {"tested_on": "MOG-induced EAE", "test": "MOG-induced EAE, laquinimod alone and with GA blocking (Example 2.1), clinical signs", "format": "in vivo, C57B1/6 mice", "details": "GA-blocking 12.5 mg/kg (250 μg/mouse) in inoculum day 0"}, "MOG-induced EAE [2]": {"tested_on": "MOG-induced EAE", "test": "MOG-induced EAE with GA blocking and s.c. daily GA (Example 2.4)", "format": "in vivo, C57B1 mice", "description": "The C57B1 strain of mouse was selected, as it is an established EAE model.\nLaquinimod was administered daily orally for 30 days at dose level of 5.0 mg/kg or 25.0 mg/kg.\nDisease was induced in the mice by the injection of the encephalitogenic emulsion (MOG/CFA). Laquinimod was administered orally for 30 consecutive days from the initiation of the study.\n(§1) EAE induction EAE was induced by injecting the encephalitogenic mixture (emulsion) consisting of MOG (150.0 μg/mouse). A volume of 0.2 ml of emulsion was injected subcutaneously into the flanks of the mice. Pertussis toxin was injected intraperitoneally on the day of induction and 48 hours later (total amount was 0300 μg/mouse in 0.2 ml dosage volume).\nThe emulsion (for groups 2 and 3 and groups 1 and 4 to 8) were made from equal parts of oil and liquid portions (1:1) in two syringes connected to each other with Leur lock, transferred to insulin syringe and 0.2 ml was injected to the right flank of each mouse. The dose of the MOG in all the groups (1 to 8) was 150 μg/mouse.\nThe test concentrations of laquinimod were prepared in purified water. For high dose (25.0 mg/kg) 2.5 mg/mL stock solution were prepared (groups #3, 6 and 8). The stock solutions were diluted 1:5 to yield 0.5 mg/mL for dose level of 5.0 mg/kg for groups 5 and 7. Laquinimod was administered to the respective groups by gavage at a volume of 0.2 ml/mouse.\n(§2) Every day one tube was thawed and brought to RT.\nClinical signs Scaring of EAE clinical signs was started from Day 10 post EAE induction and was continued daily until Day 30. The clinical signs were recorded according to a grading system described in the table 11 below\n(§3) mice having scores of 1 and above were considered sick. When the first clinical sign appeared all mice were given food soaked in water, which was spread on different places on the bedding of the cages. An animal which continued to have score 4 for three days was killed on humane grounds and given score 5 on the next day. For calculation purposes, the score of animals that were sacrificed or died was carried forward.\n• The number of sick animals in each group were summed. • The incidence of disease was calculated as\n• The number of dead or moribund animals in each group were summed. • The mortality of disease was calculated as\n• The mean duration of disease expressed in days was calculated as\n• The mean onset of disease expressed in days was calculated as\n• The mean maximal score (MMS) of each group was calculated as\n• The daily scores of each mouse in the test group were summed and the Individual mean daily score (IMS) was calculated as […]"}, "MOG-induced EAE [3]": {"tested_on": "MOG-induced EAE", "test": "MOG-induced EAE with GA blocking and s.c. daily GA (Example 2.5)", "format": "in vivo, C57B1 mice", "description": "The objective of this study was to test the suppressive effect of laquinimod alone and in combination with Glatiramer acetate in the EAE model in C57B1 mice. […] Laquinimod was administered orally at dose levels of 2.5 and 5.0 mg/kg.\nEAE was induced in the mice by the injection of the encephalitogenic emulsion (MOG/CFA). Laquinimod was administered orally for 30 consecutive days.\nas §1, with “[…]).” for “μg/mouse).”, “A” for “A volume of”, “ml” for “ml of”, “will be 0.150+0.150=0.300” for “was 0300”\nGroups 1, 3-8: 45.9 mg MOG was diluted in […] Normal Saline (3.0 mg/ml MOG stock solution). 12.5 mL of 3.0 mg/ml stock solution was diluted in 12.5 mL Normal Saline to yield 1.5 mg MOG/mL. […] The emulsification was made from equal parts of oil and liquid portions (1:1) in two syringes connected to each other with Leur lock, transferred to insulin syringe and 0.2 ml was injected the right flank of each mouse. The dose of the MOG in all the groups (1 to 8) was […].\nThe test concentrations of laquinimod were prepared in purified water. For high dose (25.0 mg/kg) 2.5 mg/mL stock solution was prepared (group 8). The 2.5 mg/mL stock solution was diluted 1:5 and 1:10 to yield 0.5 and 0.25 mg/mL for dose levels of 5.0 mg/kg for groups 5 and 7 and 2.5 mg/kg respectively for groups #4 and 6. Laquinimod was administered daily from the initiation of the study, to the respective groups by gavage at a volume of 0.2 ml/mouse.\nas §2\nClinical signs Scoring of EAE clinical signs was started from Day 10 post EAE induction and was continued daily until Day 30. The clinical signs were recorded according to a grading system described in the Table 2 above.\nas §3, with “All mice having” for “mice having”, “have score 5 for three” for “have score 4 for three”, “given score 6 on the” for “given score 5 on the”, “or died (6) was carried” for “or died was carried”"}, "[4]": {"details": "GA blocking 12.5 mg/kg once with encephalitogen, alone or + LAQ 25.0 mg/kg oral daily 30 d"}, "[5]": {"details": "GA blocking 12.5 mg/kg once with encephalitogen, alone or + LAQ 25.0 mg/kg oral daily 30 d, listed as GA blocking"}, "[6]": {"details": "GA blocking 12.5 mg/kg once with encephalitogen"}, "[7]": {"details": "GA blocking 12.5 mg/kg once with encephalitogen, listed as GA blocking"}},
  "note": "Values joined by “and” are separate entries in the source; they are usually repeats but may differ in a detail not shown here. Equal entries are not always repeated. Marks after values point to notes of the source that are not given here.",
  "data": [
    {"substance": "L-glutamic acid polymer with L-alanine, L-lysine and L-tyrosine, acetate (salt) [GA]", "values": [
      {"measurement": "% inhibition compared to Control (GMS)", "setting": "MOG-induced EAE [1]", "value": 48, "unit": "%"},
      {"measurement": "Group Mean Score", "setting": "MOG-induced EAE [1]", "value": "1.70**"},
      {"measurement": "Incidence", "setting": "MOG-induced EAE [1]", "value": "14/16"},
      {"measurement": "Mean Disease Duration", "setting": "MOG-induced EAE [1]", "value": "10.9*** days"},
      {"measurement": "Mean Maximal Score", "setting": "MOG-induced EAE [1]", "value": "3.34**"},
      {"measurement": "Mean Onset", "setting": "MOG-induced EAE [1]", "value": "19.5* days"},
      {"measurement": "% Inhibition 1 (incidence)", "setting": "MOG-induced EAE [2]; GA 250 mg/kg s.c. daily 10 d", "value": 23.5, "unit": "%"},
      {"measurement": "GMS % Inhibition 3", "setting": "MOG-induced EAE [2]; GA 250 mg/kg s.c. daily 10 d", "value": 38.1, "unit": "%"},
      {"measurement": "GMS value", "setting": "MOG-induced EAE [2]; GA 250 mg/kg s.c. daily 10 d", "value": "1.3 ± 1.1"},
      {"measurement": "Incidence", "setting": "MOG-induced EAE [2]; GA 250 mg/kg s.c. daily 10 d", "value": "13/20"},
      {"measurement": "MMS % Inhibition 2", "setting": "MOG-induced EAE [2]; GA 250 mg/kg s.c. daily 10 d", "value": 26.5, "unit": "%"},
      {"measurement": "MMS value", "setting": "MOG-induced EAE [2]; GA 250 mg/kg s.c. daily 10 d", "value": "2.5 ± 1.9"},
      {"measurement": "Mean Duration", "setting": "MOG-induced EAE [2]; GA 250 mg/kg s.c. daily 10 d", "value": "8.3 ± 6.7", "unit": "days"},
      {"measurement": "Mean Onset", "setting": "MOG-induced EAE [2]; GA 250 mg/kg s.c. daily 10 d", "value": "22.5 ± 6.7", "unit": "days"},
      {"measurement": "% Inhibition 1 (incidence)", "setting": "MOG-induced EAE [2]; [4]", "value": 52.9, "unit": "%"},
      {"measurement": "GMS value", "setting": "MOG-induced EAE [2]; [4]", "value": "0.5 ± 0.9"},
      {"measurement": "Incidence", "setting": "MOG-induced EAE [2]; [4]", "value": "8/20"},
      {"measurement": "MMS % Inhibition 2", "setting": "MOG-induced EAE [2]; [4]", "value": 70.6, "unit": "%"},
      {"measurement": "Mean Duration", "setting": "MOG-induced EAE [2]; [4]", "value": "4.3 ± 6.3", "unit": "days"},
      {"measurement": "Mean Onset", "setting": "MOG-induced EAE [2]; [4]", "value": "26.6 ± 6.4", "unit": "days"},
      {"measurement": "GMS % Inhibition 3", "setting": "MOG-induced EAE [2]; [5]", "value": 76.2, "unit": "%"},
      {"measurement": "MMS value", "setting": "MOG-induced EAE [2]; [5]", "value": "1.0 ± 1.5"},
      {"measurement": "GMS % Inhibition 3", "setting": "MOG-induced EAE [2]; GA blocking 12.5 mg/kg once with encephalitogen, alone or + LAQ 25.0 mg/kg oral daily 30 d, listed as GA-Block", "value": "(76.2) %"},
      {"measurement": "% Inhibition 1 (incidence)", "setting": "MOG-induced EAE [3]; GA 250 mg/kg s.c. daily 10 d", "value": 100.0, "unit": "%"},
      {"measurement": "GMS % Inhibition 3", "setting": "MOG-induced EAE [3]; GA 250 mg/kg s.c. daily 10 d", "value": 4.8, "unit": "%"},
      {"measurement": "GMS value", "setting": "MOG-induced EAE [3]; GA 250 mg/kg s.c. daily 10 d", "value": "2.0 ± 1.0"},
      {"measurement": "Incidence", "setting": "MOG-induced EAE [3]; GA 250 mg/kg s.c. daily 10 d", "value": "13/15"},
      {"measurement": "MMS % Inhibition 2", "setting": "MOG-induced EAE [3]; GA 250 mg/kg s.c. daily 10 d", "value": 2.9, "unit": "%"},
      {"measurement": "MMS value", "setting": "MOG-induced EAE [3]; GA 250 mg/kg s.c. daily 10 d", "value": "3.3 ± 1.4"},
      {"measurement": "Mean Duration", "setting": "MOG-induced EAE [3]; GA 250 mg/kg s.c. daily 10 d", "value": "12.1 ± 5.3", "unit": "days"},
      {"measurement": "Mean Onset", "setting": "MOG-induced EAE [3]; GA 250 mg/kg s.c. daily 10 d", "value": "18.1 ± 5.5", "unit": "days"},
      {"measurement": "% Inhibition 1 (incidence)", "setting": "MOG-induced EAE [3]; [6]", "value": 57.1, "unit": "%"},
      {"measurement": "GMS value", "setting": "MOG-induced EAE [3]; [6]", "value": "0.7 ± 1.0"},
      {"measurement": "Incidence", "setting": "MOG-induced EAE [3]; [6]", "value": "6/15"},
      {"measurement": "MMS % Inhibition 2", "setting": "MOG-induced EAE [3]; [6]", "value": 61.8, "unit": "%"},
      {"measurement": "GMS % Inhibition 3", "setting": "MOG-induced EAE [3]; [7]", "value": 66.7, "unit": "%"},
      {"measurement": "MMS value", "setting": "MOG-induced EAE [3]; [7]", "value": "1.3 and 1.3 ± 1.8"},
      {"measurement": "Mean Duration", "setting": "MOG-induced EAE [3]; [7]", "value": "12.1 days and 12.1 ± 5.3 days"},
      {"measurement": "Mean Onset", "setting": "MOG-induced EAE [3]; [7]", "value": "26.1 ± 7.0", "unit": "days"},
      {"measurement": "GMS % Inhibition 3", "setting": "MOG-induced EAE [3]; GA blocking 12.5 mg/kg once with encephalitogen, listed as GA-Block", "value": "(66.7) %"}
    ]}
  ]
}
